Structures can show the parent of a compound that is named as a salt.
Assays:
[1] = Equilibrium between diacid (10) and anhydride (9) in solution, pH dependence (UV); format: physicochemical; settings: for Predominant form in anhydride/diacid equilibrium: in solution, pH dependent
From the text: The equilibrium between diacid (10) and anhydride (9) in a solution is pH dependent. […] However, when basified with dil NaOH, this maximum shifted to ^λ max 243 nm. This shift is clear evidence of opening of the anhydride into the diacid.
(§1) The latter band under went a hypsochromic shift to […] after addition of dil NaOH.

[2] = biological target: T1, Farnesyl-protein transferase (FTase) (Bos taurus, UniProt P29702+P49355); experiment: Inhibition of Ras farnesylation in vitro (FTase inhibition, Ras-CVLS and [3H]FPP); format: biochemical, bovine; settings: for IC50: Ras-CVLS 3.5 μM, 0.25 μM [3H]FPP, partially purified FTase from bovine brain, assay buffer pH 7.5
T1 construct: Farnesyl-protein transferase (FTase) from bovine brain; from tissue; host or cells: bovine brain, partially purified (DEAE-Sephacel, N-octyl agarose, mono Q)
Experimental: The intrinsic farnesyl-protein transferase (FTase) activity of representative compounds of this invention was measured by the assay as described below:
Farnesyl-protein transferase (FTase) from bovine brain was chromatographed on DEAE-Sephacel (Pharmacia, 0-0.8M NaCl gradient elution), N-octyl agarose (Sigma, 0-0.6M NaCl gradient elution), and a mono Q HPLC column (Pharmacia, 0-0.3M NaCl gradient). Ras-CVLS (Cys-Val-Leu-Ser) at 3.5 μM, 0.25 μM [^3 H]FPP, and the indicated compounds were incubated with this partially purified enzyme preparation. The FTase inhibition data presented below is a measurement of the ability of the test compound to inhibit Ras farnesylation in vitro.

[3] = Reaction of anhydride (9) with CH3OH; format: physicochemical; settings: methanolic solution
From the text: as §1

| SMILES | Predominant form in anhydride/diacid equilibrium [1] | IC50 [2] | RAS farnesyl transferase inhibitory activity of trapped diacid salt ([2]; open diacid form (10) trapped as diisopropylethylamine salt) | Reactivity with CH3OH [3] | Form present under assay conditions ([1]; CH3OH-HEPES buffer (7:5), pH 7.5, UV maximum 243 nm) |
| --- | --- | --- | --- | --- | --- |
| CCCCCCCCCCCCCC/C(C(=O)O)=C(\C)C(=O)O [Compound (10)] | predominates when the solution is basic | 46 nM | – | – | – |
| CCCCCCCCCCCCCC/C(C(=O)O)=C(\C)C(=O)O [diisopropylethylamine salt] | – | – | without any loss of RAS farnesyl transferase inhibitory activity | – | – |
| CCCCCCCCCCCCCCC1=C(C)C(=O)OC1=O [Compound (9)] | predominates when the solution is acidic | 46 nM | – | reacts slowly with CH3 OH | exits in the open dicarboxylate form of compound (10) |

Source: patent US5420157A, “Inhibitors of farnesyl protein transferase or prodrugs thereof” (Merck & Co., Inc., priority 1991, dated 1995)
